From ChEMBL document CHEMBL5331095, “Structure-activity relationship and biological evaluation of xanthine derivatives as PCSK9 inhibitors for the treatment of atherosclerosis” (Eur J Med Chem, 2023)
The source made the active and inactive calls. The rule behind the calls is not given here.

What was measured:
[1] = target: Proprotein convertase subtilisin/kexin type 9 (Homo sapiens) (UniProt Q8NBP7); experiment: Inhibition of PCSK9 transcriptional activity in human HepG2 cells stably expressing luciferase reporter plasmid containing PCSK9 promoter assessed as decrease in luciferase activity at 10 ug/ml incubated for 24 hrs by Luciferase assay relative to control; type: cell-based; details: dose 10.0 µg/ml
Chain of Proprotein convertase subtilisin/kexin type 9 (Homo sapiens) (Q8NBP7 31-152 limits assumed): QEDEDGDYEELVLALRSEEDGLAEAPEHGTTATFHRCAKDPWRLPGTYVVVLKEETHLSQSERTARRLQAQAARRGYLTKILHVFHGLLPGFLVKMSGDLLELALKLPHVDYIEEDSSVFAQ
Chain of Proprotein convertase subtilisin/kexin type 9 (Homo sapiens) (Q8NBP7 153-692 limits assumed): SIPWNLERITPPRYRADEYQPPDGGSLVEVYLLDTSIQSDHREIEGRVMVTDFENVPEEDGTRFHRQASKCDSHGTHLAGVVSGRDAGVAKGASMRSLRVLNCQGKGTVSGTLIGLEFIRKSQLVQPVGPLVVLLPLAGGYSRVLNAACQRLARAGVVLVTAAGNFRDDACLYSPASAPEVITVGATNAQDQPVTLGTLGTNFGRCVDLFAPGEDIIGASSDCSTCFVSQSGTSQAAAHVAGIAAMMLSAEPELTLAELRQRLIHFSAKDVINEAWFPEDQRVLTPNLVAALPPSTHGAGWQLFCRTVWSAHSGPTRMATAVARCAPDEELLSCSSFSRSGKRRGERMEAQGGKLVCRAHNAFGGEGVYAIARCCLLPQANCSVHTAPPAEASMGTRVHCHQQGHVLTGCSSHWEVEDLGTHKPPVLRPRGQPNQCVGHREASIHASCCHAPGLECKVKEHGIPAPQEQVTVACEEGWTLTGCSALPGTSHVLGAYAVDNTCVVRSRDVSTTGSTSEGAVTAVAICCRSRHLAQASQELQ

[2] = test system: PCSK9 transcriptional activity; experiment: Therapeutic index, ratio of TC50 for cytotoxicity against human HepG2 cells to IC50 for inhibition of PCSK9 transcriptional activity in human HepG2 cells stably expressing luciferase reporter plasmid containing PCSK9 promoter; type: toxicity, cell-based
[3] = test system: Mus musculus; experiment: Antiatherosclerotic activity in high-fat diet fed ApoE knockout C57BL/6 mouse assessed as decrease in high-fat diet induced increase in body weight at 30 mg/kg, IG for 8 weeks; type: functional, organism-based
[4] = Acute toxicity in C57BL/6 mouse assessed as lethality upto 1000 mg/kg, IG and measured every day for 1 week; type: organism-based; details: in vivo, po, time 1 weeks
[5] = test system: Mus musculus; experiment: Antiatherosclerotic activity in high-fat diet fed ApoE knockout C57BL/6 mouse assessed as decrease in serum total cholesterol level at 30 mg/kg, IG for 8 weeks by lipid profiling assay; type: functional, organism-based
[6] = Cytotoxicity against human HepG2 cells assessed as reduction in cell viability by measuring toxic concentration incubated for 24 hrs by MTT assay; type: toxicity, cell-based; details: read-out: TC50
[7] = test system: Mus musculus; experiment: Antiatherosclerotic activity in high-fat diet fed ApoE knockout C57BL/6 mouse assessed as decrease in serum triglyceride level at 30 mg/kg, IG for 8 weeks by lipid profiling assay; type: functional, organism-based

SMILES | inhibition [1] [%] | also measured
COc1cccc(Cn2c(N3CCSCC3)nc3c2c(=O)n(C)c(=O)n3C)c1 | 17 | 
COc1cccc(Cn2c(N3CCC(N4CCCC4)CC3)nc3c2c(=O)n(C)c(=O)n3C)c1 | 8.3 | 
COc1cccc(Cn2c(NCCCN(C)C)nc3c2c(=O)n(C)c(=O)n3C)c1 | 2.3 | 
COc1cccc(Cn2c(NCCO)nc3c2c(=O)n(C)c(=O)n3C)c1 | 89.8 | selectivity ratio [2]: 16.8; Activity [3]: Active; LD50 at 168 h [4]: 300 mg/kg; Activity [5]: inactive; CC50 at 24 h [6]: 45.5 µM; Activity [7]: inactive
COc1cccc(Cn2c(NC[C@H](C)O)nc3c2c(=O)n(C)c(=O)n3C)c1 | 68.9 | 
COc1cccc(Cn2c(NCC(N)=O)nc3c2c(=O)n(C)c(=O)n3C)c1 | 59.2 | 
COC(=O)CNc1nc2c(c(=O)n(C)c(=O)n2C)n1Cc1cccc(OC)c1 | 68.4 | 
COc1cccc(Cn2c(NCCCO)nc3c2c(=O)n(C)c(=O)n3C)c1 | 60.1 | 
Cn1c(=O)c2c(nc(NCCO)n2Cc2ccc(Cl)cc2)n(C)c1=O | 47 | 
Cn1c(=O)c2c(nc(NCCO)n2Cc2cc(F)cc(F)c2)n(C)c1=O | 43.3 | 
COc1cccc(Cn2c(NC[C@@H](C)O)nc3c2c(=O)n(C)c(=O)n3C)c1 | 81.7 | selectivity ratio [2]: 22.9; CC50 at 24 h [6]: 89.2 µM
COc1cccc(Cn2c(NCCCCCCO)nc3c2c(=O)n(C)c(=O)n3C)c1 | 9 | 
COC(=O)CCNc1nc2c(c(=O)n(C)c(=O)n2C)n1Cc1cccc(OC)c1 | 41.4 | 
Cn1c(=O)c2c(nc(NCCO)n2Cc2cccc(OC(F)(F)F)c2)n(C)c1=O | 84.7 | 
COc1cccc(Cn2c(N3CCOCC3)nc3c2c(=O)n(C)c(=O)n3C)c1 | 16.3 | 
COc1cccc(Cn2c(NC(CO)CO)nc3c2c(=O)n(C)c(=O)n3C)c1 | 37 | 
Cn1c(=O)c2c(nc(NCCO)n2Cc2ccc(F)cc2)n(C)c1=O | 93.1 | 
COc1cccc(Cn2c(NCCC3CCN(C)C3)nc3c2c(=O)n(C)c(=O)n3C)c1 (stereo not drawn) | 16.7 | 
Cn1c(=O)c2c(nc(NCCO)n2Cc2ccc([N+](=O)[O-])cc2)n(C)c1=O | 23.3 | 
COc1ccc(Cn2c(NCCO)nc3c2c(=O)n(C)c(=O)n3C)cc1 | 76.5 | 
Cn1c(=O)c2c(nc(NCCO)n2Cc2ccccc2)n(C)c1=O | 80.4 | selectivity ratio [2]: 23.1; CC50 at 24 h [6]: 85.5 µM
Cn1c(=O)c2c(nc(NCCO)n2Cc2c(F)cccc2F)n(C)c1=O | 91 | 
COc1cccc(Cn2c(N3CCC(CCN(C)C)CC3)nc3c2c(=O)n(C)c(=O)n3C)c1 | 17.4 | 
